# Measurements: paper PMC12282101, “Heat shock protein 90 chaperone activity is required for hepatitis A virus replication” (Journal of Virology, 2025)
# Structures can show the parent of a compound that is named as a salt.
# Assays:
# 18f-NLuc reporter virus = assay: microbe, parasite or virus in culture; format: cell-based, Hepatitis A virus; details: for activity at 10 µM: Hepatovirus A, Huh-7.5.1, 72 h, read-out: Normalized HAV production
# Huh-7.5.1 cells = assay: Cell viability in the chemical screen (Cell TiterGlo); details: 10 µM compound, 72 h
Molecule,Normalized HAV production (18f-NLuc reporter virus),activity at 10 µM (18f-NLuc reporter virus),Viability Percent DMSO (Huh-7.5.1 cells)
COC(=O)C1=C(C)NC(c2ncc(F)cc2F)=NC1c1ccc(F)cc1Cl (racemic) [Bay 41-4109 racemate],0.84,–,–
CN(C)C[C@H](O)Cn1c2ccc(Br)cc2c2cc(Br)ccc21 (racemic) [Wiskostatin],–,101%,92 Percent DMSO
O=C(O[C@@H]1Cc2c(O)cc(O)cc2O[C@@H]1c1cc(O)c(O)c(O)c1)c1cc(O)c(O)c(O)c1 [(-)-Epigallocatechin Gallate],–,105%,125 Percent DMSO
COc1cc2ncnc(Nc3cccc(Cl)c3)c2cc1OC [AG-1478],0.51,–,164 Percent DMSO
Nc1nc(NC2CC2)c2ncn([C@H]3C=C[C@@H](CO)C3)c2n1 [Abacavir],–,87%,119 Percent DMSO
Nc1nc2c(ncn2COCCO)c(=O)[nH]1 [Aciclovir],–,99%,110 Percent DMSO
CC(C)(C)C(=O)OCOP(=O)(COCCn1cnc2c(N)ncnc21)OCOC(=O)C(C)(C)C [Adefovir dipivoxil],–,138%,74 Percent DMSO
Nc1ncnc2c1ncn2[C@@H]1O[C@H](COP(=O)(O)O)[C@@H](O)[C@H]1O.O [Adenosine 5'-monophosphate monohydrate],–,93%,115 Percent DMSO
O=C1c2cccc(O)c2C(=O)c2c(O)cc(CO)cc21 [Aloe-emodin],–,118%,90 Percent DMSO
Cc1cccc(C)c1N(CC(=O)Nc1ccc(-c2ncon2)cc1)C(=O)C1CCS(=O)(=O)CC1 [Amenamevir],–,109%,116 Percent DMSO
CC1(C)S[C@@H]2[C@H](NC(=O)[C@H](N)c3ccccc3)C(=O)N2[C@H]1C(=O)O [Ampicillin Trihydrate],–,76%,116 Percent DMSO
CC(C)CN(C[C@@H](O)[C@H](Cc1ccccc1)NC(=O)O[C@H]1CCOC1)S(=O)(=O)c1ccc(N)cc1 [Amprenavir],–,91%,121 Percent DMSO
C=C1CC[C@@H]2[C@](C)(CO)[C@H](O)CC[C@@]2(C)[C@@H]1C/C=C1/C(=O)OC[C@H]1O [Andrographolide],–,86%,106 Percent DMSO
CCOC(=O)c1c(CSc2ccccc2)n(C)c2cc(Br)c(O)c(CN(C)C)c12.Cl [Arbidol hydrochloride],0.78,–,105 Percent DMSO
C[C@@H]1CC[C@H]2[C@@H](C)C(=O)O[C@@H]3O[C@@]4(C)CC[C@@H]1[C@]32OO4 [Artemisinin],–,76%,101 Percent DMSO
COC(=O)N[C@H](C(=O)N[C@@H](Cc1ccccc1)[C@@H](O)CN(Cc1ccc(-c2ccccn2)cc1)NC(=O)[C@@H](NC(=O)OC)C(C)(C)C)C(C)(C)C [Atazanavir],–,96%,130 Percent DMSO
CC1(C)S[C@@H]2[C@H](NC(=O)[C@H](NC(=O)N3CCNC3=O)c3ccccc3)C(=O)N2[C@H]1C(=O)O [Azlocillin sodium],–,132%,98 Percent DMSO
O=C(O)[C@H]1O[C@@H](Oc2cc3oc(-c4ccccc4)cc(=O)c3c(O)c2O)[C@H](O)[C@@H](O)[C@@H]1O [Baicalin],–,81%,114 Percent DMSO
OC[C@H]1O[C@@H]2O[C@H]3[C@H](O)[C@@H](O)[C@@H](O[C@H]4[C@H](O)[C@@H](O)[C@@H](O[C@H]5[C@H](O)[C@@H](O)[C@@H](O[C@H]6[C@H](O)[C@@H](O)[C@@H](O[C@H]7[C@H](O)[C@@H](O)[C@@H](O[C@H]8[C@H](O)[C@@H](O)[C@@H](O[C@H]1[C@H](O)[C@H]2O)O[C@@H]8CO)O[C@@H]7CO)O[C@@H]6CO)O[C@@H]5CO)O[C@@H]4CO)O[C@@H]3CO [Beta-Cyclodextrin],–,72%,117 Percent DMSO
C=C(C)[C@@H]1CC[C@]2(CO)CC[C@]3(C)[C@H](CC[C@@H]4[C@@]5(C)CC[C@H](O)C(C)(C)[C@@H]5CC[C@]43C)[C@@H]12 [Betulin],–,119%,123 Percent DMSO
C=C(C)[C@@H]1CC[C@]2(C(=O)O)CC[C@]3(C)[C@H](CC[C@@H]4[C@@]5(C)CC[C@H](O)C(C)(C)[C@@H]5CC[C@]43C)[C@@H]12 [Betulinic acid],–,75%,116 Percent DMSO
COC(=O)c1cc(OC)c2c(c1-c1c(CO)cc(OC)c3c1OCO3)OCO2 [Bicyclol],–,105%,115 Percent DMSO
O=c1[nH]c(=O)n([C@H]2C[C@H](O)[C@@H](CO)O2)cc1/C=C/Br [Brivudine],–,94%,110 Percent DMSO
C[C@H]1CO[C@@H]2Cn3cc(C(=O)NCc4ccc(F)cc4F)c(=O)c(O)c3C(=O)N12 [Cabotegravir],–,49%,170 Percent DMSO
OC[C@H]1O[C@@H](O[C@@H]2OC=C[C@H]3[C@H](O)[C@@H]4O[C@]4(CO)[C@@H]23)[C@H](O)[C@@H](O)[C@@H]1O [Catalpol],–,98%,128 Percent DMSO
C=CC1=C(C(=O)O)N2C(=O)[C@@H](NC(=O)/C(=N\O)c3csc(N)n3)[C@H]2SC1 [Cefdinir],–,97%,101 Percent DMSO

Molecule,Normalized HAV production (18f-NLuc reporter virus),activity at 10 µM (18f-NLuc reporter virus),Viability Percent DMSO (Huh-7.5.1 cells)
CO/N=C(\C(=O)N[C@@H]1C(=O)N2C(C(=O)O)=C(C[N+]3(C)CCCC3)CS[C@H]12)c1csc(N)n1 [Cefepime Dihydrochloride Monohydrate],–,73%,116 Percent DMSO
C=CC1=C(C(=O)O)N2C(=O)[C@@H](NC(=O)/C(=N\OCC(=O)O)c3csc(N)n3)[C@H]2SC1 [Cefixime],–,90%,109 Percent DMSO
CO/N=C(\C(=O)N[C@@H]1C(=O)N2C(C(=O)O)=C(COC(C)=O)CS[C@H]12)c1csc(N)n1 [Cefotaxime sodium],–,80%,113 Percent DMSO
Cc1cc(O)cc(C)c1Cl [Chloroxylenol],–,90%,108 Percent DMSO
Clc1ccc(Cn2c(CN3CCCC3)nc3ccccc32)cc1 [Clemizole],–,58%,166 Percent DMSO
Cc1cn([C@H]2O[C@@H](CO)[C@H](O)[C@H]2F)c(=O)[nH]c1=O [Clevudine],–,84%,132 Percent DMSO
Clc1ccccc1C(c1ccccc1)(c1ccccc1)n1ccnc1 [Clotrimazole],–,85%,–
CC(C)c1nc(CN(C)C(=O)N[C@@H](CCN2CCOCC2)C(=O)N[C@H](CC[C@H](Cc2ccccc2)NC(=O)OCc2cncs2)Cc2ccccc2)cs1 [Cobicistat],–,34%,176 Percent DMSO
CN(C)c1ccc(C(=C2C=CC(=[N+](C)C)C=C2)c2ccc(N(C)C)cc2)cc1 [Crystal Violet],–,0.413%,20 Percent DMSO
Nc1ccn([C@@H]2O[C@H](CO)[C@@H](O)[C@@H]2O)c(=O)n1 [Cytarabine],–,66%,97 Percent DMSO
COC(=O)N[C@H](C(=O)N1CCC[C@H]1c1nc(-c2ccc(-c3ccc(-c4c[nH]c([C@@H]5CCCN5C(=O)[C@@H](NC(=O)OC)C(C)C)n4)cc3)cc2)c[nH]1)C(C)C [Daclatasvir dihydrochloride],–,88%,125 Percent DMSO
Cc1cc(C)c(Nc2ccnc(Nc3ccc(C#N)cc3)n2)c(C)c1 [Dapivirine],–,14%,114 Percent DMSO
COc1c(-c2ccc3cc(NS(C)(=O)=O)ccc3c2)cc(-n2ccc(=O)[nH]c2=O)cc1C(C)(C)C [Dasabuvir],–,14%,116 Percent DMSO
O=c1[nH]c(=O)n([C@H]2C[C@H](O)[C@@H](CO)O2)cc1I [Dendrid],–,102%,103 Percent DMSO
Oc1ccc(Cl)c2cccnc12 [Dermofongin],0.98,–,101 Percent DMSO
CN(C)CC[C@@H](c1ccc(Cl)cc1)c1ccccn1 [Dexchlorpheniramine Maleate],–,74%,118 Percent DMSO
CC1(C)[C@@H](O[C@H]2O[C@H](C(=O)O)[C@@H](O)[C@H](O)[C@H]2O[C@@H]2O[C@H](C(=O)O)[C@@H](O)[C@H](O)[C@H]2O)CC[C@]2(C)[C@H]3C(=O)C=C4[C@@H]5C[C@@](C)(C(=O)O)CC[C@]5(C)CC[C@@]4(C)[C@]3(C)CC[C@@H]12.N.N [Diammonium Glycyrrhizinate],0.78,–,116 Percent DMSO
CC(=O)OCC(=O)[C@@]1(O)CC[C@H]2[C@@H]3CCC4=CC(=O)C=C[C@]4(C)[C@@]3(Cl)[C@@H](Cl)C[C@@]21C [Dichlorisone Acetate],–,97%,105 Percent DMSO
O=C[C@H](O)[C@H]1OC(=O)[C@@H](O)[C@H]1O [Dicurone],1.16,–,–
O=c1[nH]cnc2c1ncn2[C@H]1CC[C@@H](CO)O1 [Didanosine],–,155%,108 Percent DMSO
C[C@@H]1CCO[C@H]2Cn3cc(C(=O)NCc4ccc(F)cc4F)c(=O)c(O)c3C(=O)N12 [Dolutegravir],–,49%,159 Percent DMSO
Cn1c(Cn2ccc(C(F)(F)F)c(Oc3cc(Cl)cc(C#N)c3)c2=O)n[nH]c1=O [Doravirine],–,140%,95 Percent DMSO
Clc1ccc(COC(Cn2ccnc2)c2ccc(Cl)cc2Cl)cc1 (stereo not shown) [Econazole],–,100%,–
Clc1ccc(COC(Cn2ccnc2)c2ccc(Cl)cc2Cl)c(Cl)c1 (stereo not shown) [Miconazole],–,74%,–
CC(C)c1nc(CN(C)C(=O)N[C@H](C(=O)N[C@@H](Cc2ccccc2)C[C@H](O)[C@H](Cc2ccccc2)NC(=O)OCc2cncs2)C(C)C)cs1 [Ritonavir],–,34%,–
Maraviroc,0.94,–,–
